Test results reported in US7378535B2, “Production of furanones” (Unisearch Limited, A.C.N., priority 1998, dated 2008).

SMILES: CC(O)C1=CC(=C(Br)Br)OC1=O (stereo not shown) [Example 7, 5-(Dibromomethylene)-3-(1-hydroxyethyl)-2(5H)-furanone]
- melting point: 100 °C
